Laboratory results from ChEMBL document CHEMBL5291721, “A preclinical secondary pharmacology resource illuminates target-adverse drug reaction associations of marketed drugs” (Nat Commun, 2023).

Columns and labels:
[1] = molecular target: Beta-2 adrenergic receptor (Homo sapiens, UniProt P07550); format: functional, cell-based
[2] = molecular target: T1, Muscarinic acetylcholine receptor M2 (Homo sapiens, UniProt P08172); format: functional, cell-based
T1 sequence (P08172 whole entry): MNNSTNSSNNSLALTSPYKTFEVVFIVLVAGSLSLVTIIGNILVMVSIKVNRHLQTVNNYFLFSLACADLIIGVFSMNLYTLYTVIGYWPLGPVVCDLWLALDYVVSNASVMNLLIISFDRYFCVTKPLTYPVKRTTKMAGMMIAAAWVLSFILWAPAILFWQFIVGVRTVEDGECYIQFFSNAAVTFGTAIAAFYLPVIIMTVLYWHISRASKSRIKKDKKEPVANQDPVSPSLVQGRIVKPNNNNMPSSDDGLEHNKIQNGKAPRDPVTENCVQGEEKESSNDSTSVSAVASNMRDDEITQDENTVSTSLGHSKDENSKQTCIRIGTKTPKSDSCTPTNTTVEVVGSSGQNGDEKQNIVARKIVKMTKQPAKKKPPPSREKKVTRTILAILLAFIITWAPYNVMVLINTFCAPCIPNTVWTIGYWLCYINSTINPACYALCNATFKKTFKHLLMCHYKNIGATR

D(1A) dopamine receptor = D(1A) dopamine receptor (Homo sapiens, UniProt P21728); format: functional, cell-based
D(1A) dopamine receptor, sequence (P21728 whole entry): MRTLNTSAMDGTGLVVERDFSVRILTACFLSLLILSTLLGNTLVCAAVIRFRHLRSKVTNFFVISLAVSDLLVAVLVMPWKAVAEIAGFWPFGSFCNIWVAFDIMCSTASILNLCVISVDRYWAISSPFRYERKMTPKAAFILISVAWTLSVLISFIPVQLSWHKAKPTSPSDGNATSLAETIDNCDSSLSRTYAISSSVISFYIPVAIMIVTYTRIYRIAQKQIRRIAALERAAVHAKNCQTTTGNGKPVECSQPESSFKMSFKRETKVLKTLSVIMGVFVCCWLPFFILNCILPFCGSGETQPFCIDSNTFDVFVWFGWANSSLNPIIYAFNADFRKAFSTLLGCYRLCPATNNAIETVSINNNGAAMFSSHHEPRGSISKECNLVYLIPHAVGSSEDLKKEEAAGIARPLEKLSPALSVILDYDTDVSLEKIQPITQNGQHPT

[3] = molecular target: T2, 5-hydroxytryptamine receptor 1A (Homo sapiens, UniProt P08908); format: functional, cell-based
T2 sequence (P08908 whole entry): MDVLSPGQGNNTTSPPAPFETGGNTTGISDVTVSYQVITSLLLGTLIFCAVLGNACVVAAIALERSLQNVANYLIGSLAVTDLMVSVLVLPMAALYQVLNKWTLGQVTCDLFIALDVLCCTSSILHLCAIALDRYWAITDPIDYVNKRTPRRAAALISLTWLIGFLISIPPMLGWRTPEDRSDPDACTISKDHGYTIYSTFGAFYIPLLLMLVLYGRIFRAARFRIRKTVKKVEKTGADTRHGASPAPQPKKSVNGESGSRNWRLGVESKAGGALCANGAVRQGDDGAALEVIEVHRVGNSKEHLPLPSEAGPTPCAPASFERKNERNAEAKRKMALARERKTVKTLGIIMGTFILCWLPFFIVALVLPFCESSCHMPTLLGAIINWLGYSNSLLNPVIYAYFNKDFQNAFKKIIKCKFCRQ

[4] = molecular target: 5-hydroxytryptamine receptor 2A (Homo sapiens, UniProt P28223); format: functional, cell-based
5-hydroxytryptamine receptor 2A, sequence (P28223 whole entry): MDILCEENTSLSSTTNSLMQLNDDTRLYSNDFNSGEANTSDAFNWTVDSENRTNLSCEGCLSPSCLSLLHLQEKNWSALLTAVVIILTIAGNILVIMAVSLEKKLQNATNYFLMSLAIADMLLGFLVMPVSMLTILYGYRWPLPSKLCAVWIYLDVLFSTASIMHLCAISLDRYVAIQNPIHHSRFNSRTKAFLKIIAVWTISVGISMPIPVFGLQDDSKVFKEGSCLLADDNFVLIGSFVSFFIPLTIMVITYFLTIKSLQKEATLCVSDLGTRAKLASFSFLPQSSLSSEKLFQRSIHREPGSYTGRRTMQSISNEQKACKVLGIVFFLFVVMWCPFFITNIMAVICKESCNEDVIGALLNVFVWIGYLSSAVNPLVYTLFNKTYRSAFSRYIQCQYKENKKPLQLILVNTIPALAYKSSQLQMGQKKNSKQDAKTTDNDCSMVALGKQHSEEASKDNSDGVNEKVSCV

[5] = molecular target: 5-hydroxytryptamine receptor 2B (Homo sapiens, UniProt P41595); format: functional, cell-based
5-hydroxytryptamine receptor 2B, sequence (P41595 whole entry): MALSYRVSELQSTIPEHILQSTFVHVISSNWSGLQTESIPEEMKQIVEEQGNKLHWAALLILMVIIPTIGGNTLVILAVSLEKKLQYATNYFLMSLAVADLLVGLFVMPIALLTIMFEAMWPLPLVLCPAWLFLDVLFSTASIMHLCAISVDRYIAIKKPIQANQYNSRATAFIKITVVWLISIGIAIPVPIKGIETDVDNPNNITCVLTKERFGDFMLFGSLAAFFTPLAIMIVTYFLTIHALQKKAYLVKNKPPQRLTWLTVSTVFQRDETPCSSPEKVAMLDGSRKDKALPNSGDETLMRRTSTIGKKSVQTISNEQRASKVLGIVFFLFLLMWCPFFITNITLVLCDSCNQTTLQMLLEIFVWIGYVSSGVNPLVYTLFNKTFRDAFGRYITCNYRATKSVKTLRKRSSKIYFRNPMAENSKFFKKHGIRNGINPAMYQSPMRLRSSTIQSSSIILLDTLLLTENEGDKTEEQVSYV

[6] = molecular target: T3, 5-hydroxytryptamine receptor 2C (Homo sapiens, UniProt P28335)
T3 sequence (P28335 whole entry): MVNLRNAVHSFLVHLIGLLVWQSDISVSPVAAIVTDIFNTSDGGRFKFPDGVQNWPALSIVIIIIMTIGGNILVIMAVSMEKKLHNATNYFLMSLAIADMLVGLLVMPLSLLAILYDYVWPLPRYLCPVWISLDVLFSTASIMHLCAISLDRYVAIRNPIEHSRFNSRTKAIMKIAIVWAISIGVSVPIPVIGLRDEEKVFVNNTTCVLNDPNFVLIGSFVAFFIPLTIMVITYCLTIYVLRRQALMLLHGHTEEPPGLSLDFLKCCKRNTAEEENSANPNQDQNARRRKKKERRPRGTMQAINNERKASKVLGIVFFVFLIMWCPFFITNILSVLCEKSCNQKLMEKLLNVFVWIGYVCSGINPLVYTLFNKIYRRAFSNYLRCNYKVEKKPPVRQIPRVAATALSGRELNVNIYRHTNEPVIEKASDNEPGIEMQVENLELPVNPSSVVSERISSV

[7] = molecular target: Delta-type opioid receptor (Homo sapiens, UniProt P41143)
Delta-type opioid receptor, sequence (P41143 whole entry): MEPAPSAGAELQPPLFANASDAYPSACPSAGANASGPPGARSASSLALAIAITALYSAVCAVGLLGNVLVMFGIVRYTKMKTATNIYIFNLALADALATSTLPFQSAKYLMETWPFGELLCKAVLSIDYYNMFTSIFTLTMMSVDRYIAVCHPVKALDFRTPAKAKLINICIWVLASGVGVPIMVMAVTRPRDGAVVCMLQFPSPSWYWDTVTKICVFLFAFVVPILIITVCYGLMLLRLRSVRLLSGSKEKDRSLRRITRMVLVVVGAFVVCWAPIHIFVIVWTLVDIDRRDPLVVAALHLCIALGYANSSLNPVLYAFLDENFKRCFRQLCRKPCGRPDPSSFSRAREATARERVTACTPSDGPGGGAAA

[8] = molecular target: T4, Amine oxidase [flavin-containing] A (Homo sapiens, UniProt P21397); format: functional
T4 sequence (P21397 whole entry): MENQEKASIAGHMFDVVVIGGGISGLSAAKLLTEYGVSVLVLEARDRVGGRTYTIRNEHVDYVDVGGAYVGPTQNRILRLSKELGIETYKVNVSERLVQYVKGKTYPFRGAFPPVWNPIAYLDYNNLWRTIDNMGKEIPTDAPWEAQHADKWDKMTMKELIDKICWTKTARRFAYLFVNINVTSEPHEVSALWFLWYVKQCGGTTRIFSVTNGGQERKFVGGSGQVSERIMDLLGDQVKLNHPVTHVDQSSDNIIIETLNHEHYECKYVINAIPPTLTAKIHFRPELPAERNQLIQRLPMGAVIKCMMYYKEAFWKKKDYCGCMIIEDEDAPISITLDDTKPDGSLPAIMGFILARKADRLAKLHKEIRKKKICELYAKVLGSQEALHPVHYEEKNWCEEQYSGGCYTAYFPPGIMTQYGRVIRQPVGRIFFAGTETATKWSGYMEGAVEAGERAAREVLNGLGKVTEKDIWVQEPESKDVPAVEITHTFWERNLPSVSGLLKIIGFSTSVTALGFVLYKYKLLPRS

[9] = molecular target: Gamma-aminobutyric acid receptor subunit alpha-1 (Rattus norvegicus, UniProt P62813)
Gamma-aminobutyric acid receptor subunit alpha-1, sequence (P62813 whole entry): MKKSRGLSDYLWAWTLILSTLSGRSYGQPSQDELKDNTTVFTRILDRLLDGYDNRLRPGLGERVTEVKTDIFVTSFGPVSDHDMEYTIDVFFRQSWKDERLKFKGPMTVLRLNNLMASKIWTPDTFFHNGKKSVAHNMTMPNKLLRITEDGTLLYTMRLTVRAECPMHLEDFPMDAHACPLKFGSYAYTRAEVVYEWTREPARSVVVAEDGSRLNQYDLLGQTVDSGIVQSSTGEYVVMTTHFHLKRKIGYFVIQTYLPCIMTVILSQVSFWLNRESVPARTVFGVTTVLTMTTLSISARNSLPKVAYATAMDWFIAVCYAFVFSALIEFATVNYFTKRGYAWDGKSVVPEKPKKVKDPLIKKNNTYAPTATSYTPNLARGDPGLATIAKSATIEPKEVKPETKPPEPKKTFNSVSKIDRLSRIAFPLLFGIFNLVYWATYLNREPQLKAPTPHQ

Adenosine receptor A3 = molecular target: T5, Adenosine receptor A3 (Homo sapiens, UniProt P0DMS8)
T5 sequence (P0DMS8 whole entry): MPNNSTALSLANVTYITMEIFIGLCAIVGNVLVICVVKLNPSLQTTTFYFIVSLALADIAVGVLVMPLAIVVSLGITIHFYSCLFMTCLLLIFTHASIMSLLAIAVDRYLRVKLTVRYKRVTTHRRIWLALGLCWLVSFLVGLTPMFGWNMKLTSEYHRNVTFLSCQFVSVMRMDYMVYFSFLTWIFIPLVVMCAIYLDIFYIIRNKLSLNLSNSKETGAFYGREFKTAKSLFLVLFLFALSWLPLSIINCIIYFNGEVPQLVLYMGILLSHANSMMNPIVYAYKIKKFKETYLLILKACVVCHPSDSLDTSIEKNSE

[10] = molecular target: T1, Muscarinic acetylcholine receptor M2
[11] = molecular target: T4, Amine oxidase [flavin-containing] A; format: functional; remark: listed apart in the source
Melanocortin receptor 4 = Melanocortin receptor 4 (Homo sapiens, UniProt P32245)
Melanocortin receptor 4, sequence (P32245 whole entry): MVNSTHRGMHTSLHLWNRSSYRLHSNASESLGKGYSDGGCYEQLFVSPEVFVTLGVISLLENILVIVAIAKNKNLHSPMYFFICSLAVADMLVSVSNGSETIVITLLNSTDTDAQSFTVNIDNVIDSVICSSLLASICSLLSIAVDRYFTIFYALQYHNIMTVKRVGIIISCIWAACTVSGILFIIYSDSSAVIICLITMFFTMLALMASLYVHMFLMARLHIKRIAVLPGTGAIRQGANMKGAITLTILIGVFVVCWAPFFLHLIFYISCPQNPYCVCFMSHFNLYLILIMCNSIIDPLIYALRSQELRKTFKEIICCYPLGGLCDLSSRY

Mu-type opioid receptor = Mu-type opioid receptor (Homo sapiens, UniProt P35372); test: biochemical; format: functional
Mu-type opioid receptor, sequence (P35372 whole entry): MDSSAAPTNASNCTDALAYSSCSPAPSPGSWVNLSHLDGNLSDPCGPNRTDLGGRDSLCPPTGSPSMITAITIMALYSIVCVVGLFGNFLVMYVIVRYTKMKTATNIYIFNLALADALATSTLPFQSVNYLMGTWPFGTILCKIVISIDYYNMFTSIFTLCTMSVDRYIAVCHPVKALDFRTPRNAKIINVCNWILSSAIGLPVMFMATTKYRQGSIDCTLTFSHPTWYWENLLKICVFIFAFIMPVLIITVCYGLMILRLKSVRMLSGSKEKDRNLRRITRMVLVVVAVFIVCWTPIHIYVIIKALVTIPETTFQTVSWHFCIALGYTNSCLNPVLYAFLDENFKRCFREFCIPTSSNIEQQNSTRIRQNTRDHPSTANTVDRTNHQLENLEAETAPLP

[12] = molecular target: Sodium-dependent dopamine transporter (Homo sapiens, UniProt Q01959)
Sodium-dependent dopamine transporter, sequence (Q01959 whole entry): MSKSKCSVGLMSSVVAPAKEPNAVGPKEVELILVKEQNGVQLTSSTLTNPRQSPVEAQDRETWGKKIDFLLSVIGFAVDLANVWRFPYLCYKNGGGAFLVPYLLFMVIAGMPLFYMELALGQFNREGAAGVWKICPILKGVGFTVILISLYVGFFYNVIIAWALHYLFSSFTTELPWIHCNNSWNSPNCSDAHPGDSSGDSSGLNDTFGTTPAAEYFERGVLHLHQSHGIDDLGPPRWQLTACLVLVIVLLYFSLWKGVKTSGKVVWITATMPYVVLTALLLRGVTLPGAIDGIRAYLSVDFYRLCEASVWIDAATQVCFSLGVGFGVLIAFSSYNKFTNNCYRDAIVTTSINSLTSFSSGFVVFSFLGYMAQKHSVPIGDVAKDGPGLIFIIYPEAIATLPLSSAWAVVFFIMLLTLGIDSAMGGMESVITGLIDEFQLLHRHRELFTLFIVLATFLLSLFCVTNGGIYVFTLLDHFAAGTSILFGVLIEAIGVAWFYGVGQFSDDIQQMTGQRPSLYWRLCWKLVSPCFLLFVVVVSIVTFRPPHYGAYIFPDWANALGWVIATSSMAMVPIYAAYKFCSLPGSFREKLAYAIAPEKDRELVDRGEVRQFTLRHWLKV
Note: assay procedure not described here.

Beta-2 adrenergic receptor, sequence (P07550 whole entry): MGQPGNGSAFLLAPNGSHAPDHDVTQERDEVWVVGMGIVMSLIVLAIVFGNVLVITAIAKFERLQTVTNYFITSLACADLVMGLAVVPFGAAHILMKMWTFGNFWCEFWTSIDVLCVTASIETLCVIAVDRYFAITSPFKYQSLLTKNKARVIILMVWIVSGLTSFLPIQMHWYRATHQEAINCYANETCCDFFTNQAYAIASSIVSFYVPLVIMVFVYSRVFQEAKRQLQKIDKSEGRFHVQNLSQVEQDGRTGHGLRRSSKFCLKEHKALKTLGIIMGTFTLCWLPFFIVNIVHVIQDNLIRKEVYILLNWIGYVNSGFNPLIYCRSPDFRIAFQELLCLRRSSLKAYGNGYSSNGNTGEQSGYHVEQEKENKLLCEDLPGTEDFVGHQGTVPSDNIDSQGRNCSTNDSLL

Row | Compound | AC50 [1] [µM] | AC50 [2] [µM] | AC50 (D(1A) dopamine receptor) [µM] | AC50 [3] [µM] | AC50 [4] [µM] | AC50 [5] [µM] | AC50 [6] [µM] | AC50 [7] [µM] | AC50 [8] [µM] | AC50 [9] [µM] | AC50 (Adenosine receptor A3) [µM] | AC50 [10] [µM] | AC50 [11] [µM] | AC50 (Melanocortin receptor 4) [µM] | AC50 (Mu-type opioid receptor) [µM] | AC50 [12] [µM]
1 | CC(=O)c1ccc2c(c1)N(CCCN1CCN(CCO)CC1)c1ccccc1S2 [ACETOPHENAZINE] | > 30 | > 30 | > 30 | 0.007 | > 30 | 4.49 | > 30 | > 30 | > 30 |  |  |  |  |  |  | 
2 | CN1CCCC(n2nc(Cc3ccc(Cl)cc3)c3ccccc3c2=O)CC1 (stereo not drawn) [AZELASTINE] | > 30 |  | > 30 | > 30 | > 30 |  |  | > 30 | > 30 |  |  |  |  |  |  | 
3 | CC(=O)OCC(=O)[C@@]1(O)CC[C@H]2[C@@H]3CCC4=CC(=O)CC[C@]4(C)[C@H]3C(=O)C[C@@]21C [CORTISONE ACETATE] | > 30 |  |  | > 30 |  | > 30 | > 30 | > 30 | > 30 | > 30 |  |  |  |  |  | 
4 | CN(CCOc1ccc(NS(C)(=O)=O)cc1)CCc1ccc(NS(C)(=O)=O)cc1 [DOFETILIDE] |  | > 30 | > 10 | > 10 | > 30 | > 30 | > 30 | > 30 | > 10 | > 10 | > 30 | 6.73 | > 30 | > 30 | > 30 | > 30
5 | CC(C)C(=O)Nc1ccc([N+](=O)[O-])c(C(F)(F)F)c1 [FLUTAMIDE] |  | > 10 | > 30 | > 10 |  | > 10 | > 30 | > 30 | > 30 | > 10 | 20.3 | > 30 | > 30 | > 30 | > 30 | > 30
6 | CC(C)Cc1ccc(CC(=O)O)cc1 [IBUFENAC] | > 30 | > 30 | > 30 | > 30 | > 30 | > 30 | > 30 | > 30 | > 30 |  |  |  |  |  |  | 
7 | CC(C)NNC(=O)c1ccncc1 [IPRONIAZID] | > 30 | > 30 | > 30 | > 30 |  | > 30 | > 30 | > 30 |  |  |  |  |  |  |  | 
8 | Cc1cccc(C)c1OCC(C)N (stereo not drawn) [MEXILETINE] | > 30 | > 30 | > 30 |  |  | 8.5 |  |  | 18 |  |  |  |  |  | > 30 | 
9 | CCc1ccc(CCOc2ccc(CC3SC(=O)NC3=O)cc2)nc1 (stereo not drawn) [PIOGLITAZONE] |  | > 10 | > 10 | > 10 |  | > 10 | > 10 | > 10 | > 10 | > 10 | > 30 | > 30 | > 30 | > 30 | > 30 | > 30
10 | CC[C@H](C)C(=O)O[C@H]1C[C@H](O)C=C2C=C[C@H](C)[C@H](CC[C@@H](O)C[C@@H](O)CC(=O)O)[C@H]21 [PRAVASTATIN] | > 30 | > 30 | > 30 | > 30 |  | > 30 | > 30 | > 30 | > 30 | > 10 |  |  |  |  |  | 
11 | CC(O)CO (stereo not drawn) [PROPYLENE GLYCOL] |  |  |  |  |  |  |  |  |  |  | > 30 | > 30 | > 30 |  |  | > 30
12 | NC(=O)c1cnccn1 [PYRAZINAMIDE] |  | > 30 | > 30 | > 10 |  | > 30 | > 30 | > 30 | > 30 | > 30 | > 30 | > 30 | > 30 | 10.2 | > 30 | > 30
13 | CN(C)C(=O)Oc1ccc[n+](C)c1 [PYRIDOSTIGMINE] |  |  |  |  |  |  |  |  |  |  | > 30 | > 30 | > 30 |  |  | > 30
14 | O=C(NC[C@H]1CN(c2ccc(N3CCOCC3=O)cc2)C(=O)O1)c1ccc(Cl)s1 [RIVAROXABAN] | > 30 | > 30 | > 30 |  | > 30 | > 30 | > 30 | > 30 | > 30 |  |  | > 30 | > 30 |  |  | > 30
15 | CC(C)OC(=O)[C@H](C)N[P@](=O)(OC[C@H]1O[C@@H](n2ccc(=O)[nH]c2=O)[C@](C)(F)[C@@H]1O)Oc1ccccc1 [SOFOSBUVIR] |  |  |  |  |  |  |  |  |  |  | > 30 | > 30 | > 30 |  |  | > 30
16 | CS(=O)(=O)c1ccc([C@@H](O)[C@@H](CO)NC(=O)C(Cl)Cl)cc1 [THIAMPHENICOL] |  | > 30 | > 30 | > 30 |  | > 30 | > 30 | > 30 | > 30 | > 30 | > 30 | > 30 | > 30 |  | > 30 | > 30
17 | Cc1ccc(O)c2ncccc12 [TILIQUINOL] |  |  |  |  |  |  |  |  |  |  | > 30 | > 30 | > 30 |  |  | > 30
18 | CC(=O)OC[C@H]1O[C@@H](n2ccc(=O)[nH]c2=O)[C@H](OC(C)=O)[C@@H]1OC(C)=O [URIDINE TRIACETATE] |  |  |  |  |  |  |  |  |  |  | > 30 | > 30 | > 30 |  |  | > 30
19 | CCOC(=O)N[C@@H]1CC[C@@H]2[C@@H](C1)C[C@H]1C(=O)O[C@H](C)[C@H]1[C@H]2/C=C/c1ccc(-c2cccc(F)c2)cn1 [VORAPAXAR] |  |  |  |  |  |  |  |  |  |  | 2.43 | > 30 | > 30 |  |  | > 30
